Measurements published in PubChem BioAssay AID512.

What follows are molecules tested against Carbonyl reductase [NADPH] 3 (Homo sapiens) (UniProt O75828) (assay: ligand binding to human carbonyl reductase 3 – biophysical, DSF, SYPRO orange, recombinant protein (AID 512)). Conditions: recombinant CBR3, DSF SYPRO orange thermal shift; at 10 µM; buffer 10 mM HEPES; pH 7.5; NaCl 150 mM; NADP 100 µM; protein 2 µM; stronger effect = higher value.
Chain of Carbonyl reductase [NADPH] 3 (Homo sapiens) (O75828 whole entry, looked up): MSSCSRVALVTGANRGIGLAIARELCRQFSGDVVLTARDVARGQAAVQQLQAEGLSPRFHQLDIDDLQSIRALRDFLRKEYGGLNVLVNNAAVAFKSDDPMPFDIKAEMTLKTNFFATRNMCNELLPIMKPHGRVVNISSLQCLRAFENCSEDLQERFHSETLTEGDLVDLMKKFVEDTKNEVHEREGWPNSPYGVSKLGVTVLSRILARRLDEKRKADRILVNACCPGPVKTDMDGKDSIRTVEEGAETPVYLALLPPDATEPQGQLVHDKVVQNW

Tm shift [Celsius] | SMILES
2.4 | Cc1ccc2c(c1)=C(c1[nH]c(=S)[nH]c1O)C(=O)N=2
2.1 | Brc1ccc(-c2[nH]c(-c3c[nH]c4ccccc34)nc2-c2ccccc2)cc1
3.1 | COc1cc(/C=C/C(=O)CC(=O)/C=C/c2ccc(O)c(OC)c2)ccc1O

Same assay, conditions: recombinant CBR3, DSF SYPRO orange thermal shift; at 10 µM; buffer 10 mM HEPES; pH 7.5; NaCl 150 mM; protein 2 µM; stronger effect = higher value

SMILES | Tm shift [Celsius]
O=C1C(=O)C(c2ccc(O)cc2O)Oc2cc(O)cc(O)c21 (centres undefined) | 2.2
CCN(CC)C(=S)SSC(=S)N(CC)CC | 2.5
NC(=O)c1ccc[n+](C2OC(COP(=O)(O)OP(=O)(O)OCC3OC(n4cnc5c(N)ncnc54)C(OP(=O)(O)O)C3O)C(O)C2O)c1 (centres undefined) | 4.4

Further lines, results first:

Tm shift [Celsius] | SMILES
2.1 | O=C1C(=O)C(c2ccc(O)cc2)Oc2cc(O)cc(O)c21 (centres undefined)
3.1 | O=c1oc2cc(O)ccc2c2oc3cc(O)ccc3c12

Same assay, conditions: recombinant CBR3, DSF SYPRO orange thermal shift; measured here: second experiment Tm shift; at 10 µM; run 2; buffer 10 mM HEPES; pH 7.5; NaCl 150 mM; NADP 100 µM; protein 2 µM; stronger effect = higher value

Tm shift [Celsius] | SMILES
2.4 | COc1cc(/C=C/C(=O)CC(=O)/C=C/c2ccc(O)c(OC)c2)ccc1O
